In US6365578B1, “Drug cominbations containing AZT” (Roger Williams General Hospital, priority 1990, dated 2002):
Like-named read-outs stand apart in the source and are kept apart here.

Experiments:
[1] = test system: Balb/C female athymic (nude) mice; settings: 4 courses
Description: In vivo tests to assess the toxicity of various dosages of AZT and FUra were carried out on Balb/C female athymic (nude) mice.
(§1) The mice were divided into groups of 5-8 animals each and treated with different doses and schedules of FUra, AZT, or both in combination. FUra and AZT were dissolved in normal saline immediately before use and were administered by intraperitoneal bolus injection so that the desired dose was contained in 0.1 ml/10 g animal body weight. FUra was administered in doses corresponding to 80, 90 and 100 mg/kg weekly or 20, 25, and 30 mg/kg for 5 consecutive days with intervening 2 week rest periods. The AZT component was administered at doses of 300 or 600 mg/kg. In those cases where the two components were not administered simultaneously, the FUra component was administered first followed in approximately 2 hours with the AZT component. Toxicity was assessed by determination of mortality, changes in body weight, and changes in white blood cell counts (WBC). Animal body weights were recorded immediately before and twice weekly after initiation of treatment and weight change was calculated as a percentage of the initial body weight. To determine WBC, blood was collected from the orbital sinus in a heparinized Natelson pipette, and after appropriate dilution the cell number was determined electronically one week after each course of therapy. The tests were carried out in duplicate and the pooled number of animals per treatment group was 10-16.
In the control group the mice received no treatment; in group 2 they received 600 mg/kg of AZT; in group 3 they received 85 mg/kg of FUra; in group 4 they received 85 mg/kg of FUra followed at a 2 hour interval by 600 mg/kg of AZT; in group 5 the mice received 100 mg/kg of FUra alone. A total of 4 courses of administration were carried out, each in triplicate, and the pooled number of animals per treatment group corresponded to 23-30.

[2] = test system: Balb/C female athymic (nude) mice; settings: 2 courses
Description: as §1
A second series of toxicity tests were carried out using a different regimen with similar groups of animals as follows:
Group 1 was treated with 600 mg/kg of AZT for days 3 to 5 inclusive; Group 2 was treated with 20 mg/kg of FUra from days 1 to 5; Group 3 was treated with 20 mg/kg of FUra for days 1 to 5 and with 600 mg/kg of AZT for days 3 to 5; Group 4 was treated with 25 mg/kg of FUra for days 1 to 5. The medication was administered by intraperitoneal bolus, the AZT being administered two hours after FUra. The treatment was repeated every two weeks. A total of 2 courses were administered, the tests being carried out in triplicate and the pool number of animals per treatment group corresponded to 21-30.

[3] = test system: mice; assay: LD10 of MTX in mice; format: in vivo; settings: weekly

Cc1cn([C@H]2C[C@H](N=[N+]=[N-])[C@@H](CO)O2)c(=O)[nH]c1=O [AZT, 3′-azido-3′-deoxythymidine]
Mortality (percent dead on day 29 after starting treatment) ([1]; AZT 600 mg/kg i.p.): 0%
Mortality (percent dead on day 29 after starting treatment) ([2]; AZT 600 mg/kg i.p. days 3 to 5, repeated every two weeks): 0%

CN(Cc1cnc2nc(N)nc(N)c2n1)c1ccc(C(=O)N[C@@H](CCC(=O)O)C(=O)O)cc1 [MTX, methotrexate]
LD10 [3]: 87.5 mg/kg/wk

O=c1[nH]cc(F)c(=O)[nH]1 [FUra, 5-fluorouracil]
Mortality (percent dead on day 29 after starting treatment) ([1]; FUra 85 mg/kg i.p.): 25%
Mortality (percent dead on day 29 after starting treatment) ([1]; FUra 100 mg/kg i.p.): 60.8%
Mortality (percent dead on day 29 after starting treatment) ([2]; FUra 20 mg/kg i.p. days 1 to 5, repeated every two weeks): 0%
Mortality (percent dead on day 29 after starting treatment) ([2]; FUra 25 mg/kg i.p. days 1 to 5, repeated every two weeks): 12.5%
